This passage reports IC50 and viability, T/C results from PubChem BioAssay AID2060899 (Molecular Pharmacology Branch, DTP, NCI, 2025).

Several values for one entry are separate records, joined by “and”; a condition that tells them apart may be missing. Identical values can stand only once.

By IC50 is commonly meant the concentration at which inhibition is half-maximal. As a reminder, the viability, T/C is the result in the treated group divided by that in the control group, in per cent.

For the experiment, the system named is 565726-208-R1-J5-PDC complex spheroids, growth inhibition. As to the kind of experiment: Anticancer human tumor 565726-208-R1-J5-PDC patient-derived pancreatic adenocarcinoma cell line growth inhibition [RAS]. The note with it: for viability, T/C: stronger effect = lower value. The method in brief:
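Agents were tested in combination matrices in half-log decrements from a top concentration at or near clinical Cmax (10 microM if undetermined). Targets were multi-cell spheroids of tumour lines plus HUVEC and MSC stromal cells.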
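Also: spheroids exposed to compounds for seven days before readout.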
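For viability, T/C in this document: 100% = DMSO vehicle control viability.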

As to `CC(C)NCC(C(=O)N1CCN(c2ncnc3c2C(C)CC3O)CC1)c1ccc(Cl)cc1` (centres undefined) + C#Cc1c(F)ccc2cc(O)cc(-c3ncc4c(N5CC6CCC(C5)N6)nc(OCC56CCCN5CC(F)C6)nc4c3F)c12, the concentration for half-maximal inhibition (IC50) was greater than 10 µM (curve of first compound, second compound 0.0316 µM); greater than 10 µM (curve of first compound, second compound 0.1 µM); greater than 10 µM (curve of first compound, second compound 0.316 µM); greater than 10 µM (curve of first compound, second compound 1 µM); 0.473 µM (curve of first compound, second compound 3.16 µM); 1.21 µM (curve of first compound, second compound 10 µM). Moreover, the viability, T/C (second compound 0.0316 µM, first compound 0.0316 µM) is 85.7%; the viability, T/C (second compound 0.0316 µM, first compound 0.1 µM) is 129%; the viability, T/C (second compound 0.0316 µM, first compound 0.316 µM) is 96%; the viability, T/C (second compound 0.0316 µM, first compound 1 µM) is 76%; the viability, T/C (second compound 0.0316 µM, first compound 3.16 µM) was 80.2%; the viability, T/C (second compound 0.0316 µM, first compound 10 µM) is 91.4%. For the same molecule, the viability, T/C is 108% (second compound 0.1 µM, first compound 0.0316 µM); 114% (second compound 0.1 µM, first compound 0.1 µM); 80.3% (second compound 0.1 µM, first compound 0.316 µM); 77.3% (second compound 0.1 µM, first compound 1 µM); 88% (second compound 0.1 µM, first compound 3.16 µM); 86% (second compound 0.1 µM, first compound 10 µM). In addition, the viability, T/C is, setting by setting: (second compound 0.316 µM, first compound 0.0316 µM) 104%; (second compound 0.316 µM, first compound 0.1 µM) 117%; (second compound 0.316 µM, first compound 0.316 µM) 78.1%; (second compound 0.316 µM, first compound 1 µM) 84.9%; (second compound 0.316 µM, first compound 3.16 µM) 71.9%; (second compound 0.316 µM, first compound 10 µM) 80.5%. Besides, the viability, T/C by setting is: (second compound 1 µM, first compound 0.0316 µM) 109%; (second compound 1 µM, first compound 0.1 µM) 125%; (second compound 1 µM, first compound 0.316 µM) 76.5%; (second compound 1 µM, first compound 1 µM) 59.5%; (second compound 1 µM, first compound 3.16 µM) 63.4%; (second compound 1 µM, first compound 10 µM) 52.5%. Further, the viability, T/C (second compound 3.16 µM, first compound 0.0316 µM) was 101%; the viability, T/C (second compound 3.16 µM, first compound 0.1 µM) is 83.8%; the viability, T/C (second compound 3.16 µM, first compound 0.316 µM) is 50.7%; the viability, T/C (second compound 3.16 µM, first compound 1 µM) was 48.4%; the viability, T/C (second compound 3.16 µM, first compound 3.16 µM) is 38.5%; the viability, T/C (second compound 3.16 µM, first compound 10 µM) was 34.7%. Besides, the viability, T/C was 67.8% (second compound 10 µM, first compound 0.0316 µM); 76.6% (second compound 10 µM, first compound 0.1 µM); 57.6% (second compound 10 µM, first compound 0.316 µM); 47.1% (second compound 10 µM, first compound 1 µM); 44.5% (second compound 10 µM, first compound 3.16 µM); 21.1% (second compound 10 µM, first compound 10 µM).

For `CC(Nc1ccc2c(c1)OCCn1cc(N3C(=O)OCC3C(F)F)nc1-2)C(N)=O` (centres undefined), the viability, T/C runs as follows: (compound 0.0316 µM) 94.9% [middle of 4 runs]; (compound 0.316 µM) 79.3% [middle of 4 runs]; (compound 1 µM) 72% [middle of 4 runs]. Besides, under “curve of compound”, the IC50 was > 10 µM and 9.95 µM.

As for `CC1(C)CCC(Nc2ncc(C(F)(F)F)c(-c3c[nH]c4c(P(C)(C)=O)c(C#N)ccc34)n2)CN1` (centres undefined), the viability, T/C is 51.3% [middle of 4 runs] (compound 0.003 µM); 37.9% [middle of 4 runs] (compound 0.00949 µM); 31.7% [middle of 4 runs] (compound 0.03 µM); 36.9% [middle of 4 runs] (compound 0.0949 µM); 34.4% [middle of 4 runs] (compound 0.3 µM). Besides, for the setting “curve of compound”, the IC50 was 3.92 nM [middle of 4 runs].

Turning to `Cc1nc(N2CCC3(CC2)COC(C)C3N)c(CO)nc1Sc1ccnc(N)c1Cl` (centres undefined) + CCn1c(-c2cccnc2C(C)OC)c2c3cc(ccc31)N1CCOC(CC(NC(=O)C(C(C)C)N(C)C(=O)C3(F)CCN(C(=O)C#CC(C)(C)N(C)C)CC3)C(=O)N3CCCC(N3)C(=O)OCC(C)(C)C2)C1, the IC50 is, setting by setting: (curve of first compound, second compound 0.000949 µM) greater than 10 µM; (curve of first compound, second compound 0.003 µM) greater than 10 µM; (curve of first compound, second compound 0.00949 µM) greater than 10 µM; (curve of first compound, second compound 0.03 µM) greater than 10 µM; (curve of first compound, second compound 0.0949 µM) greater than 10 µM; (curve of first compound, second compound 0.3 µM) greater than 10 µM. Also, the viability, T/C is 95.1% (second compound 0.000949 µM, first compound 0.0316 µM); 92.8% (second compound 0.000949 µM, first compound 0.1 µM); 84.9% (second compound 0.000949 µM, first compound 0.316 µM); 73.7% (second compound 0.000949 µM, first compound 1 µM); 80% (second compound 0.000949 µM, first compound 3.16 µM); 66.5% (second compound 0.000949 µM, first compound 10 µM). For the same molecule, the viability, T/C was 104% (second compound 0.003 µM, first compound 0.0316 µM); 97% (second compound 0.003 µM, first compound 0.1 µM); 86.6% (second compound 0.003 µM, first compound 0.316 µM); 77% (second compound 0.003 µM, first compound 1 µM); 71% (second compound 0.003 µM, first compound 3.16 µM); 70.6% (second compound 0.003 µM, first compound 10 µM). The viability, T/C is, setting by setting: (second compound 0.00949 µM, first compound 0.0316 µM) 83.4%; (second compound 0.00949 µM, first compound 0.1 µM) 97.3%; (second compound 0.00949 µM, first compound 0.316 µM) 86.3%; (second compound 0.00949 µM, first compound 1 µM) 76.5%; (second compound 0.00949 µM, first compound 3.16 µM) 79.7%; (second compound 0.00949 µM, first compound 10 µM) 71.6%. In addition, the viability, T/C by setting is: (second compound 0.03 µM, first compound 0.0316 µM) 95.5%; (second compound 0.03 µM, first compound 0.1 µM) 87.3%; (second compound 0.03 µM, first compound 0.316 µM) 92.8%; (second compound 0.03 µM, first compound 1 µM) 89.3%; (second compound 0.03 µM, first compound 3.16 µM) 81.5%; (second compound 0.03 µM, first compound 10 µM) 69.6%. Moreover, the viability, T/C (second compound 0.0949 µM, first compound 0.0316 µM) is 81%; the viability, T/C (second compound 0.0949 µM, first compound 0.1 µM) is 98.2%; the viability, T/C (second compound 0.0949 µM, first compound 0.316 µM) is 85.1%; the viability, T/C (second compound 0.0949 µM, first compound 1 µM) was 69.8%; the viability, T/C (second compound 0.0949 µM, first compound 3.16 µM) was 77.4%; the viability, T/C (second compound 0.0949 µM, first compound 10 µM) was 78.8%. For the same molecule, the viability, T/C is 91.2% (second compound 0.3 µM, first compound 0.0316 µM); 79.8% (second compound 0.3 µM, first compound 0.1 µM); 79.4% (second compound 0.3 µM, first compound 0.316 µM); 69.8% (second compound 0.3 µM, first compound 1 µM); 70.2% (second compound 0.3 µM, first compound 3.16 µM); 59.2% (second compound 0.3 µM, first compound 10 µM).
